Source: patent publication US20240360179A1, “STAPLED PEPTIDES AND METHODS THEREOF” (FOG PHARMACEUTICALS, INC., priority 2021, published 2024)
pIC50, pKd: −log10 of the molar value.

How the values were obtained:
[1] = target: T1, full-length B-Catenin (Uniprot ID P35222) (Homo sapiens, UniProt P35222); assay type: binding; details: read-out: Competition Fluorescence Polarization IC50
T1 construct: 10 nM full-length B-Catenin (Uniprot ID P35222)
T1 sequence (P35222 1-781): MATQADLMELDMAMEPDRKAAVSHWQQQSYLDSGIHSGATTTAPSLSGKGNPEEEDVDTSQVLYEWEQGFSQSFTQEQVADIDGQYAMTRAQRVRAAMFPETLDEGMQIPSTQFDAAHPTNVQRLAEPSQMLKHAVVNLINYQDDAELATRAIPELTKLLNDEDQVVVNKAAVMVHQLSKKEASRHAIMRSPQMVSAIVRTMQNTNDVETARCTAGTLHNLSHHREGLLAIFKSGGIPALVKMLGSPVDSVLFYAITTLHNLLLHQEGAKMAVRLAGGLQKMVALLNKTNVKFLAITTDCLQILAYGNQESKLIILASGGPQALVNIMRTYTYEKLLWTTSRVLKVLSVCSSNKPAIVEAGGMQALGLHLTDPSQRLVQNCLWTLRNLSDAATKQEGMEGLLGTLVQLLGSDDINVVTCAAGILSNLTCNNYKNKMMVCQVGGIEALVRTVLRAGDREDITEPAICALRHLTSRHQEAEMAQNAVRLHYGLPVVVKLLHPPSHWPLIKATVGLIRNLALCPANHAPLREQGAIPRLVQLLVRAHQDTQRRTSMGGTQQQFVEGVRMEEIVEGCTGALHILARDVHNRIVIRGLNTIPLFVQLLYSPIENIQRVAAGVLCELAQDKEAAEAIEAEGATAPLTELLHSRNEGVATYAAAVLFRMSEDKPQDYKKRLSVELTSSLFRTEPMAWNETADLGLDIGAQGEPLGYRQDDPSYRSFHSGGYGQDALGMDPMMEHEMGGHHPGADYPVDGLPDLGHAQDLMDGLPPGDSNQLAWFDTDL

[2] = target: T2, biotinylated B-Catenin residues 134-665 (Uniprot ID P35222) (Homo sapiens, UniProt P35222); assay: Surface plasmon resonance (Biacore) binding to beta-catenin; details: read-out: SPR Kd
T2 construct: biotinylated B-Catenin residues 134-665 (Uniprot ID P35222)
T2 sequence (P35222 134-665): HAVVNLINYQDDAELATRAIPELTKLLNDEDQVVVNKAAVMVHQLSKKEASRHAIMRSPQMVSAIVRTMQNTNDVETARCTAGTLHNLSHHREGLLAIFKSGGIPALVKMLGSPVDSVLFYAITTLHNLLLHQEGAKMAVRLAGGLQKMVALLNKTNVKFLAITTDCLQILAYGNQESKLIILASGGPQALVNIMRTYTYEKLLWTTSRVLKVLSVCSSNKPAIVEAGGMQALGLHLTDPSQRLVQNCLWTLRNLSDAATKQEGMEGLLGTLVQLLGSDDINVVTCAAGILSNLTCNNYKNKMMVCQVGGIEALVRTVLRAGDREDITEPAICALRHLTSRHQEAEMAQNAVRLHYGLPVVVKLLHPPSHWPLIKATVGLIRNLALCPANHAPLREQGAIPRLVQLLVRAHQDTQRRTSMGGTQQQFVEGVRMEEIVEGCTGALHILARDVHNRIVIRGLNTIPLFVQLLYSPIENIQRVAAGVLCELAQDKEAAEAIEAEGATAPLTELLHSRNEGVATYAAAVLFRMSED
Protocol: In some embodiments, binding to beta-catenin may be measured by surface plasmon resonance (SPR).
Peptides at 10 mM concentration in DMSO are diluted into Biacore™ running buffer (50 mM Tris pH 8.0, 300 mM NaCl, 2% glycerol, 0.5 mM TCEP, 0.5 mM EDTA, 0.005% Tween-20, 0.09% DMSO) to afford an appropriate dilution range. […] Results were analyzed using the Biacore™ Insight Evaluation Software, fitting to a 1:1 binding model.
SPR. In some embodiments, SPR may be utilized for characterizing or assessing interactions, bindings, etc. The following protocol is described as an example. In some embodiments, SPR experiments were performed on a Biacore™ 8K (Cytiva, Marlborough, MA) instrument at 25° C. Compounds were diluted into running buffer (50 mM Tris pH 8.0, 300 mM NaCl, 2% glycerol, 0.5 mM TCEP, 0.5 mM EDTA, 0.005% Tween-20, 1% DMSO). […] Results were analyzed using the Biacore™ Insight Evaluation software, with double referencing and fitted to a 1:1 binding affinity model.

[3] = target: T3, beta-catenin/TCF4 interaction (Homo sapiens, UniProt P35222); assay type: cell-based; details: read-out: NanoBRET IC50
T3 construct: host or cells: HEK293
T3 sequence (P35222 1-781): T1 sequence (P35222 1-781)

[4] = target: T4, TCF/LEF luciferase reporter in DLD1 cells (Homo sapiens, UniProt P35222); assay: TCF reporter assay in DLD1 cells (4% or 20% FBS); assay type: cell-based; details: DLD1 reporter cells; read-out: TCF reporter IC50
T4 sequence (P35222 2-781): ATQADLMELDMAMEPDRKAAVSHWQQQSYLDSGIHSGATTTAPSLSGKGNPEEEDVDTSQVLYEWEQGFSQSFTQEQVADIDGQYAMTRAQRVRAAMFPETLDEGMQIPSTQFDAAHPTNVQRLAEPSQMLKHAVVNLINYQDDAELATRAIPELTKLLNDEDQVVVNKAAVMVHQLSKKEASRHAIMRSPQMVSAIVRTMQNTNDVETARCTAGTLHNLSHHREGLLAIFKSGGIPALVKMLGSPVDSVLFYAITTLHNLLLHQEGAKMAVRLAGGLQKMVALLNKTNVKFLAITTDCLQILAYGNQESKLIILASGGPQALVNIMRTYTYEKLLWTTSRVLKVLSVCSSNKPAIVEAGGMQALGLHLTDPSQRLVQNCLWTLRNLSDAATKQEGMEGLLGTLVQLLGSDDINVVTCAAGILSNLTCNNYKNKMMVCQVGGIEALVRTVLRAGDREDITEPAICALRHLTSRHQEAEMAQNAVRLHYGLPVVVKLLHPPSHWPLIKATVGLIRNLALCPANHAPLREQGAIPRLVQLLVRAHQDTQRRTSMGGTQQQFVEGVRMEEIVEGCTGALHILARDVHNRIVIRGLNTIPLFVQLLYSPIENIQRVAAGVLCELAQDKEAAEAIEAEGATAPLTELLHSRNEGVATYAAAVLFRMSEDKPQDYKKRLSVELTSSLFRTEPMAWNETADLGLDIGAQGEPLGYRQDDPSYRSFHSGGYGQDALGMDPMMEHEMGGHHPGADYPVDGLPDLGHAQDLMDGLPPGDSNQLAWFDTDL

[5] = system: AXIN2 transcripts in COLO320DM cells; assay: qPCR of AXIN2 transcripts in COLO320DM cells; assay type: cell-based, human
Description: RT-qPCR. […] Relative gene expression levels were monitored using the Taqman Gene Expression probes for AXIN2 (Hs00610344 m1, ThermoFisher), SP5 (Hs01370227-mH, ThermoFisher), RNF43 (Hs00214886-m1, ThermoFisher), NOTUM (Hs00991061-m1, ThermoFisher), CXCL12 (Hs03676656-mH, ThermoFisher).

[6] = system: beta-catenin driven transcription in HAP1 WT cells; assay: qPCR of beta-catenin driven transcription in HAP1 WT cells (CHIR treated); assay type: cell-based; details: CHIR treated
[7] = Mouse plasma pharmacokinetics (IV, IP); assay type: in vivo; details: single intraperitoneal (IP) dose at 100 mg/kg
Protocol: Concentrations of agents in biological samples were measured by LC-MS/MS (Triple Quad 6500+). […] 8 uL of plasma or tissue lysate was used for LC method with mobile phase A (1% formic acid (FA, LS118-4, Fisher Scientific) in H2O) and mobile phase B (0.1% FA in ACN), 0.6 ml/min flow rate in Waters ACQUITY UPLC BEH C18 2.1*50 mm, 1.7 μm column. […] MS was conducted by electrospray ionization and multi reaction monitor scans. PK parameters such as plasma maximum concentration (Cmax), and AUC were analyzed by noncompartmental model 200 of Phoenix WinNonlin 8.3, using the linear/log trapezoidal method.
In some embodiments, concentrations of compounds, e.g., stapled peptides, in biological samples were measured by LC-MS/MS (Triple Quad 6500+). […] 8 uL of plasma or tissue lysate was used for LC method with mobile phase A (1% formic acid (FA, LS118-4, Fisher Scientific) in H2O) mobile phase B (0.1% FA in ACN), 0.6 ml/min flowrate in Waters ACQUITY UPLC BEH C18 2.1*50 mm, 1.7 um column. […] In some embodiments, MS was conducted by electrospray ionization and multi reaction monitor scans. In some embodiments, PK parameters such as plasma maximum concentration (Cmax), and AUC were analyzed by noncompartmental model 200 of Phoenix WinNonlin 8.3, using the linear/log trapezoidal method.

Substance: Ac-PL3-Glu-Npg-B5-Glu-3COOHF-Aib-Ala-Phe-Lys*3-PyrS2-3Thi-BztA-GlnR*3-Ala-NH2 [I-470]
- pIC50 [1]: 5.12
- pKd [2]: < 5.30
- pIC50 [3]: < 4.70
- pIC50 [4]: < 4.70
- effect on AXIN2 expression level ([5]; COLO320DM cells): no or very little or non-significant effect
- pIC50 ([5]; Reduction of AXIN2 transcripts in COLO320DM cells): < 4.70
- expression of AXIN2 and SP5 by qPCR (transcription) [6]: No reduction
- plasma AUC [7]: comparable
